Source: patent US20230181673A1, “TRI-PEPTIDES AND TREATMENT OF METABOLIC, CARDIOVASCULAR AND INFLAMMATORY DISORDERS” (Diapin Therapeutics, LLC, priority 2018, published 2023)
Non-standard residues stand in square brackets, D forms with d. No end group written: not given here.

Legend:
plasma glucose = conditions: humans, glycine ingested together with glucose; cited from earlier work
[1] = system: hemoglobin-A1c and plasma TNFR1; conditions: T2D patients, 5 g/day for 3 months; cited from earlier work
diet-induced NASH = assay type: in vivo, mice; conditions: for NASH-diet-induced hepatomegaly and yellowish coloration: leucine 0.17, glycine 0.33, DT-109 0.125 or 0.5 mg/g/day
[2] = KK-Ay mice, dietary glycine; cited from earlier work
ABCG8 = experiment: Western blot of hepatic ABCG8 in WD-fed apoE−/− mice; assay type: in vivo; conditions: normalized to β-Actin
Description: (§1) Eight-week-old male apolipoprotein E-deficient (apoE−/−) mice (B6.129P2-Apoetm1Unc/J, Stock No.: 002052) were obtained from Jackson Laboratories. Mice were fed Western diet (WD, 42% of calories from fat and 0.2% cholesterol by weight, Envigo TD.88137). After one week of WD feeding, blood was carefully collected from the facial vein to determine baseline plasma levels of total cholesterol (TC). […] All mice were maintained on a 12-hour light/dark cycle and had ad libitum access to food and water. Body weight and food intake were measured every one and three weeks, respectively
The following primary antibodies were used: rabbit polyclonal anti-ABCG8 (Santa Cruz Biotechnology, sc-30111, working dilution 1:1000) and rabbit polyclonal anti-β-Actin (Cell signaling, 4967S, working dilution 1:3000). After TBST washing, membranes were incubated with secondary antibodies (LI-COR Biotechnology, donkey anti-rabbit IRDye 926-32213, 926-88073, working dilution 1:10000) for 1 hour at room temperature.

[3] = obese C57BL/6 mice, chronic glycine supplementation 1 mg/g/day; cited from earlier work
circulating TG = conditions: apoE−/− mice, chronic glycine supplementation 1 mg/g/day; cited from earlier work
NASH-diet-induced HS = assay type: in vivo, mice; conditions: endpoint
Experimental: Frozen section processing was used for Oil Red O (ORO) staining. Formalin-fixed liver samples were cryoprotected in 20% sucrose at 4° C. overnight, blotted, then liquid nitrogen-snap frozen in O.C.T. Compound (Tissue-Tek, Cat #4583) and stored at −80° C. until ready for cryosectioning. Prior to sectioning, frozen blocks were brought up to about −20° C., then sectioned at 5 μm on a Cryotome SME (Thermo-Shandon, Cat #77200227). Slides were stored at −80° C. until stained. Prior to staining, liver slides were thawed to room temperature for 30 min. Slides were post-fixed in 10% Neutral Buffered Formalin for 20 min, rinsed in DDW, followed by rinsing in 60% Isopropanol before being placed in working ORO-isopropanol stain (Rowley Biochemical Inc., H-503-1B) for 5 min. Slides were then rinsed in 60% Isopropanol followed by three changes of DDW. Then, slides were nuclear counterstained in Harris Hematoxylin and mounted in Aqua-Mount (Lerner Laboratories, Cat #13800) aqueous mounting media.
Livers were rapidly removed from the euthanized mice, snap-frozen with liquid nitrogen, and kept at −80° C. Frozen liver samples (100 mg) were homogenized in PBS and centrifuged (14,000 RPM, 20 min). The supernatants were collected and analyzed for protein content using Bio-Rad Bradford assay. To assess liver lipid composition, lipids were extracted from the supernatants using hexane (≥99%, Sigma-Aldrich 32293) and isopropanol (≥99.5%, Fisher Scientific A428-4) at a 3:2 ratio (v:v), and the hexane phase was left for evaporation for 48 h. […] Liver diacylglycerols (DAG) were determined using ELISA Kit (Aviva Systems Biology, OKEH02607), according to the manufacturer's instructions. Hepatic TG, TC and DAG data were normalized to protein levels.
Mice fed CD and administered H2O served as control.

[4] = sucrose-fed rats; cited from earlier work
hepatic gene expression = experiment: qPCR analysis of hepatic gene expression in WD-fed apoE−/− mice; assay type: in vivo; conditions: for Hepatic expression of CCL2 / Hepatic expression of TNFα / Hepatic expression of key genes regulating FAO (PPARα, PNPLA2, CACT, CPT1a, ACADL): apoE−/− mice on WD, qPCR (FIG. 16D)
Description: as §1
(§2) Total RNA from liver or adipose tissue samples was extracted using QIAGEN's RNeasy kits (QIAGEN). RNA was reverse-transcribed into cDNA with SuperScript III and random primers (Invitrogen). Specific transcript levels were assessed by a real-time PCR system (Bio-Rad) using IQ SYBR Green Supermix (Bio-Rad) and the ΔΔCt threshold cycle method of normalization. Gene expression levels were normalized to glyceraldehyde 3-phosphate dehydrogenase (GAPDH). Primer pairs used for qPCR were obtained from Integrated DNA Technologies and are listed below:
as §2, with “from mouse” for “from”, “liver” for “liver or adipose tissue”, “glycerldehyde” for “glyceraldehyde”, “(GAPDH).” for “(GAPDH). Primer pairs used for qPCR were obtained from Integrated DNA Technologies and are listed below:”

SMAD2 = conditions: NASH-diet, liver
Experimental: Liver samples were lysed in radioimmunoprecipitation assay lysis buffer (RIPA buffer, Thermo Scientific) supplemented with a protease/phosphatase inhibitor cocktail (Roche Applied Science). Proteins were resolved in 10% sodium dodecyl sulfate polyacrylamide gel electrophoresis (SDS-PAGE) and transferred to nitrocellulose membranes (Bio-Rad). The membranes were blocked for 1 h at room temperature in tris-buffered saline-Tween 20 (TBST) containing 5% fat-free milk and incubated with primary antibody at 4° C. overnight. The following primary antibodies were used: AGXT1 (Santa Cruz Biotechnology sa-517388, 1:500), HADHA (Proteintech 10758-1-AP, 1:1000), ACAA2 (ABcional A15778, 1:500), phospho-SMAD2 (Ser485/487, Cell Signaling, #3108S; 1:1000), SMAD2 (Cell Signaling Technology, #5339S; 1:1000), GAPDH (Santa Cruz Biotechnology so-365062; 1:2000), or β-Actin (Cell Signaling Technology #3700). The membranes were washed with TBST before incubated with IRDye-conjugated secondary antibodies (LI-COR Biosciences, 1:10000) at room temperature for 1 h. After TBST washing, bands were visualized and quantified using an Odyssey Infrared Imaging System (LI-COR Biosciences, version 2.1).

blood glucose [5] = conditions: previous studies from the applicant's lab; cited from earlier work
gut microbiota = conditions: mice with established NASH
Experimental: Total genomic DNA of the gut microbiota was extracted from fecal samples using the QIAamp DNA Stool Mini Kit (51540, Qiagen) according to the manufacturer's instructions. DNA was prepared for community analysis as previously described.17 Briefly, barcoded dual-index primers specific to the V4 region of the 16S rRNA gene were used to amplify the DNA.18 PCR reactions were composed of 5 μL of 4 μM equimolar primer set, 0.15 μL of AccuPrime Taq DNA High Fidelity Polymerase, 2 μL of 10×AccuPrime PCR Buffer II (Thermo Fisher Scientific 12346094), 11.85 μL of PCR-grade water, and 1 μL of DNA template. […] The normalized reactions were pooled and quantified using the Kapa Biosystems Library qPCR MasterMix (ROX Low) Quantification kit for Illumina platforms (KK4873). […]
DNA sequencing data was processed using Mothur according to SOP and focused primarily on α- and β-diversity based analyses. […] Constrained ordination RDA (redundancy analysis) was calculated, and the significance of environmental variables was checked by forward selection analysis. […] The principal component analysis (PCA) was plotted accordingly using Phyloseq package in R. The correlations between changes in the altered bacterial genera and NAFLD-related parameters in the liver or plasma were calculated using nonparametric Spearman's test.

blood glucose [6] = experiment: OGTT in C57BL/6J mice given glucose with glycine-based compounds; assay type: in vivo
Experimental: OGTT were performed in C57BL/6J mice after 12 h fasting (n=6-8).
OGTT were performed after 12 h fasting. […] Blood glucose concentrations were measured using a blood glucometer and test strips (Contour Next).

[7] = NASH-diet
Experimental: Body composition was assessed using nuclear magnetic resonance (NMR)-based analyzer (Minispec LF90II; Bruker Optics) at the U-M Animal Phenotyping Core. Oxygen consumption (VO2), carbon dioxide production (VCO2) and motor activity were measured using CLAMS (Columbus Instruments). Respiratory exchange ratio (RER) Is VCO2/VO2.
All measurements were performed by the University of Michigan Animal Phenotyping Core. Body fat, lean body mass, and free fluids were measured using a nuclear magnetic resonance (NMR)-based analyzer (Minispec LF90II; Bruker Optics). The analyzer is daily checked using a reference sample as recommended by the manufacture. The mice were placed individually into the measuring tube with minimum restrain. Oxygen consumption (VO2), carbon dioxide production (VCO2) and motor activity were measured using CLAMS (Columbus Instruments), an integrated open-circuit calorimeter equipped with an optical beam activity monitoring device. Mice were weighed before the measurements and individually placed into the sealed chambers (7.9″×4″×5″) with free access to food and water. The study was carried out in an experimentation room set at 20-23° C. with 12-12 h dark-light cycles (6:00 PM-6:00 AM). Measurements were carried out continuously for 48 h. During this time, animals were provided with food and water through the feeding and drinking devices located inside the chamber. VO2 and VCO2 in each chamber were sampled sequentially for 5 s in 10 min intervals and the motor activity was recorded every second in X and Z dimensions. The air flow rate through the chambers was adjusted to keep the oxygen differential around 0.3% at resting conditions. Respiratory exchange ratio (RER) was calculated as VCO2/VO2. Total energy expenditure, glucose oxidation and fat oxidation were calculated based on the values of VO2, VCO2, and the protein breakdown.

[8] = 0.5 mg/g/day DT-109, compared to the H2O controls

Compound	F4/80 immunostaining in liver (diet-induced NASH; endpoint, NASH-diet)	NASH-diet-induced hepatic fibrosis (Sirius Red and fibrosis scoring) (diet-induced NASH; endpoint, NASH-diet)	NASH-diet-induced hepatomegaly and yellowish coloration (diet-induced NASH; endpoint)	ABCG8 protein in liver (Western blot) (ABCG8)	HS by ORO and lipid quantification (NASH-diet-induced HS)	Hepatic expression of CCL2 (hepatic gene expression)	Hepatic expression of TNFα (hepatic gene expression)	Hepatic expression of key genes regulating FAO (PPARα, PNPLA2, CACT, CPT1a, ACADL) (hepatic gene expression)	Hepatic expression of ABCG5 and ABCG8 (hepatic gene expression; liver, endpoint, qPCR)	Hepatic expression of AMPKα1 and PPARα (hepatic gene expression; liver, endpoint, qPCR)	Hepatic expression of PNPLA2, CPT1a, CACT, ACADI and UCP2 (hepatic gene expression; liver, endpoint, qPCR)	also measured
NCC(=O)O [glycine, reference compound]	attenuated	protective effects	markedly attenuated	Overexpression	significantly attenuated	downregulation	without significant changes	upregulation	significantly increased	significantly induced	significantly upregulated	Attenuation of the increase in plasma glucose (plasma glucose): > 50%; Hemoglobin-A1c and plasma TNFR1 [1]: reduced hemoglobin-A1c and plasma TNFR1; Glucose tolerance, circulating TG, ALT, HS and inflammatory infiltration [2]: improved glucose tolerance, lowered circulating TG and alanine-aminotransferase (ALT), while attenuating HS and inflammatory infiltration; Glucose tolerance and fat loss [3]: restore glucose tolerance and accelerate fat loss; Circulating TG (circulating TG): reduce circulating TG; Intra-abdominal fat, plasma TG and FAO markers in hepatic mitochondria [4]: reduced intra-abdominal fat, plasma TG and increased FAO markers in hepatic mitochondria; Hepatic expression of genes regulating gluconeogenesis (G6pc, PCK1 and FBP1) (hepatic gene expression; liver, endpoint, qPCR): no significant change; Hepatic expression of genes regulating glucose uptake (GLUT1, GLUT2 and GLUT4) (hepatic gene expression; liver, endpoint, qPCR): upregulated; MCP1 expression in the liver (hepatic gene expression; liver, endpoint, qPCR): suppressed
CC(C)C[C@H](N)C(=O)O [leucine]	significantly increased	but not leucine	–	–	marked HS	–	–	–	–	–	–	–
Gly-Gly-Leu [DT-109]	attenuated	protective effects	markedly attenuated	Overexpression	significantly attenuated	downregulation	without significant changes	upregulation	significantly increased	significantly induced	significantly upregulated	SMAD2 Ser465/467 phosphorylation (SMAD2): reduced SMAD2 Ser465/467 phosphorylation; Adipocyte hypertrophy in EAT and SAT (diet-induced NASH; NASH-diet, 0.5 mg/g/day DT-109): decreased adipocyte hypertrophy; NAS (diet-induced NASH; endpoint, 0.5 mg/g/day DT-109): significantly decreased; Glucose-lowering effects (previous studies) (blood glucose [5]): profound glucose-lowering effects; Bacterial genus Alistipes in gut microbiota (gut microbiota): increased; Bacterial genus Clostridium sensu stricto in gut microbiota (gut microbiota): decreased; Glucose-lowering effect in OGTT compared with glycine (blood glucose [6]; 12 h fasting, glucose 2 mg/g with 0.5 mg/g compound, oral): lowered glucose more efficiently than glycine; Glucose-lowering effect in OGTT compared with equivalent levels of free leucine or glycine (blood glucose [6]; DT-109 0.5 mg/g vs leucine 0.17 or glycine 0.33 mg/g): particularly when compared to equivalent levels of its individual AA; Liver diacylglycerols (DAG) (NASH-diet-induced HS; 0.5 mg/g/day DT-109): significantly reduced; Body fat [7, 8]: reduced body fat; Lean mass [7, 8]: preserved lean mass; Respiratory exchange ratio (RER) ([7]; CLAMS weeks 22-23, DT-109 at 0.5 mg/g/day): no significant differences
Gly-Gly-[dL] [DT-110]	–	–	–	Overexpression	–	–	–	–	significantly increased	significantly induced	significantly upregulated	Hepatic GLUT1 expression (hepatic gene expression; liver, endpoint, qPCR): markedly induced; Hepatic expression of LDLR (hepatic gene expression; liver, endpoint, qPCR): significant upregulation
